Experimental findings from ChEMBL document CHEMBL1201862, “PubChem BioAssay data set” (2004) are described below.

Some test systems named below: A498; SF-295; SF-268; SW-620; OVCAR-4; EKVX; DU-145; SNB-19; M14; TK-10; T47D; UACC-62; HCT-15; COLO 205; PC-3; SK-MEL-5; NCI-H460; HT-29; OVCAR-8.
Holding throughout (assay): growth of human tumour cells (NCI), 48 h

The structures appear in SMILES notation.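 Cells were grown in 96-well plates and exposed to each compound for 48 hours at five concentrations; endpoints were interpolated linearly between bracketing concentrations, or set to the highest concentration if not reached. The concentration for 50% growth inhibition is given as GI50.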 Activity calls are given as the source filed them. No stated cut-off is given here; in the data, active = GI50 up to about 1.1 µM and inactive = higher. Where a SMILES comes first, the peptide text is derived from it. The star is where a group is joined. Boc = CC(C)(C)OC(=O)*; OBn = c1ccc(CO*)cc1

Consider `CSC1=C(C#N)C(=O)N(c2ccc(Cl)cc2)C(=O)C1C#N` (configuration not stated), for which the GI50 in the test with A498 is 74.6 µM (inactive); with SF-295, 87.1 µM (inactive); in the test on SF-268, > 100 µM (inactive); in the test on SW-620, > 100 µM (inactive); in the test on OVCAR-4 it was > 100 µM (inactive); with EKVX, > 100 µM (inactive). Further, the GI50 with DU-145 was > 100 µM (inactive); in the test with SNB-19, > 100 µM (inactive); in the test with M14, 96.4 µM (inactive); in the test with TK-10 it was > 100 µM (inactive); in the test with T47D, 74.8 µM (inactive); with UACC-62, > 100 µM (inactive). Further, the GI50 in the test with HCT-15 was over 100 µM; in the test on COLO 205 it was > 100 µM (inactive); with PC-3 it was > 100 µM (inactive); in the test on SK-MEL-5, > 100 µM (inactive); in the test on NCI-H460, > 100 µM (inactive); with HT-29, > 100 µM (inactive).

As for `CC(=O)Oc1cc(S(=O)(=O)Nc2nc(N)n[nH]2)c(S)cc1Cl`, the GI50 in the test on A498, with SF-295, with SW-620, in the test with OVCAR-4, with EKVX and with DU-145 was > 100 µM (inactive) each time. Moreover, the GI50 with SNB-19, in the test with M14, in the test with TK-10, with T47D, with OVCAR-8 and in the test on UACC-62 was > 100 µM (inactive) throughout. In addition, the GI50 in the test on HCT-15 was over 100 µM; in the test on COLO 205 it was > 100 µM (inactive); with PC-3, > 100 µM (inactive); in the test on SK-MEL-5 it was > 100 µM (inactive); in the test with NCI-H460, > 100 µM (inactive); with HT-29 it was > 100 µM (inactive).

Take `CC(C(N)=O)N(C)C(=O)c1cnc2ccccc2c1` (configuration not stated): the GI50 was > 100 µM (inactive) in the test with A498; > 100 µM (inactive) with SF-295; > 10 µM (inactive) with SF-268; > 100 µM (inactive) in the test with SW-620; > 100 µM (inactive) in the test on OVCAR-4; > 100 µM (inactive) in the test with DU-145. Besides, the GI50 in the test with SNB-19, in the test with M14, in the test with TK-10, with T47D, in the test with OVCAR-8 and in the test with UACC-62 was > 100 µM (inactive) throughout. The GI50 in the test on HCT-15 was over 100 µM; in the test on COLO 205, > 100 µM (inactive); in the test with PC-3, > 100 µM (inactive); in the test with SK-MEL-5, > 100 µM (inactive); in the test with NCI-H460, > 100 µM (inactive); in the test with HT-29, > 100 µM (inactive).

In the case of `CC1=NN(c2cccc(Cl)c2)C2(C1=Cc1ccc(O)cc1)C(Cl)C(=O)N2c1nc2ccccc2s1` (configuration not stated), the GI50 in the test with A498 was 13.6 µM (inactive); in the test with SF-295, 21.5 µM (inactive); with SF-268, 19.6 µM (inactive); in the test on SW-620 it was 15.4 µM (inactive); in the test with OVCAR-4 it was 22.6 µM (inactive); in the test on EKVX it was 29.4 µM (inactive). The GI50 with DU-145 was 21.5 µM (inactive); in the test with M14, 24.7 µM (inactive); in the test with TK-10, 37.7 µM (inactive); with T47D, 15.8 µM (inactive); with OVCAR-8, 27 µM (inactive); in the test with HCT-15, 15.5 µM. Besides, the GI50 was 19.4 µM (inactive) in the test with PC-3, 16.6 µM (inactive) in the test on SK-MEL-5, 24.9 µM (inactive) with NCI-H460 and 21.7 µM (inactive) with HT-29.

As for `CC1(C)C2CCC(N)(C2)C1O` (configuration not stated), the GI50 in the test on A498, in the test on SF-295, with SW-620, in the test on OVCAR-4, with EKVX and in the test with DU-145 was > 100 µM (inactive) throughout. In addition, the GI50 in the test with SNB-19, in the test with M14, in the test on TK-10, with T47D, with OVCAR-8 and with UACC-62 was > 100 µM (inactive) throughout. In addition, the GI50 in the test on HCT-15 is over 100 µM; in the test on COLO 205 it was > 100 µM (inactive); in the test on PC-3 it was > 100 µM (inactive); with SK-MEL-5, > 100 µM (inactive); in the test with NCI-H460 it was > 100 µM (inactive).

For the compound `CC(C)CC(NC(=O)OC(C)(C)C)C(=O)N1CCCC1C(=O)OCc1ccccc1` (stereo not drawn) (Boc-Leu-Pro-OBn; configuration not given here), the GI50 in the test with A498, in the test with SF-295, in the test on SF-268, in the test on SW-620, with OVCAR-4 and in the test on EKVX was > 100 µM (inactive) in each case. Moreover, the GI50 in the test with DU-145 is > 100 µM (inactive); in the test with SNB-19, > 100 µM (inactive); in the test with M14 it was 99.3 µM (inactive); in the test with TK-10 it was > 100 µM (inactive); in the test on T47D it was > 100 µM (inactive); in the test on OVCAR-8, > 100 µM (inactive). Besides, the GI50 with UACC-62 was > 100 µM (inactive); in the test on HCT-15, 63.4 µM; in the test with COLO 205 it was > 100 µM (inactive); in the test on PC-3 it was > 100 µM (inactive); in the test with SK-MEL-5, > 100 µM (inactive); with HT-29, 41.4 µM (inactive).

On to `O=C(CCc1cccc(O)c1)NCCc1cccc(O)c1`, for which the GI50 in the test with A498, in the test on SF-295, in the test on SF-268, with OVCAR-4, in the test with EKVX and in the test with DU-145 was > 100 µM (inactive) throughout. The GI50 in the test with SNB-19, in the test with M14, with TK-10, with T47D, in the test with OVCAR-8 and in the test with UACC-62 was > 100 µM (inactive) throughout. Also, the GI50 in the test on HCT-15 is over 100 µM; in the test on COLO 205, > 100 µM (inactive); in the test with PC-3, > 100 µM (inactive); in the test with SK-MEL-5, > 100 µM (inactive); in the test with NCI-H460 it was > 100 µM (inactive); in the test with HT-29, > 100 µM (inactive).

`COC(=O)C(Cc1ccccc1)NC(=O)CSc1nnc(COc2ccc(Cl)cc2)n1-c1ccccc1` (configuration not stated): the GI50 with A498 was 17 µM (inactive); in the test on SF-268, 25.7 µM (inactive); with SW-620, 35.9 µM (inactive); in the test with OVCAR-4 it was 21.4 µM (inactive); with DU-145, 34.8 µM (inactive); in the test on SNB-19 it was 49.9 µM (inactive). For the same compound, the GI50 was 20.2 µM (inactive) with M14; 19.4 µM (inactive) with TK-10; 26.1 µM (inactive) in the test with T47D; 14.6 µM (inactive) in the test on UACC-62; 35.2 µM with HCT-15; 20.4 µM (inactive) in the test with COLO 205. The GI50 with PC-3 was 22.8 µM (inactive); in the test with SK-MEL-5, 17.1 µM (inactive); in the test with NCI-H460 it was 16.5 µM (inactive); with HT-29, 23.4 µM (inactive).

`Cc1ccc(C(=O)N/N=C(\N=N\c2ccc(C(=O)O)cc2)c2ccc(N(CCC#N)CCC#N)cc2C)cc1`: the GI50 is 53.8 µM (inactive) in the test with A498; > 100 µM (inactive) in the test on SF-295; > 100 µM (inactive) in the test with SW-620; > 100 µM (inactive) in the test with OVCAR-4; > 100 µM (inactive) in the test on EKVX; > 100 µM (inactive) with DU-145. Also, the GI50 in the test with SNB-19 was > 100 µM (inactive); with M14, > 100 µM (inactive); in the test with TK-10 it was > 100 µM (inactive); in the test with T47D it was 70.5 µM (inactive); in the test on OVCAR-8, > 100 µM (inactive); in the test on HCT-15, over 100 µM. Further, the GI50 with COLO 205, in the test with PC-3, in the test on SK-MEL-5, in the test with NCI-H460 and with HT-29 was > 100 µM (inactive) throughout.

Regarding `COC(=O)CCC(C)[C@H]1CCC2C3CC[C@@H]4CC5(CC[C@]4(C)C3C[C@H](OC(C)=O)[C@@]21C)OOC1(CCCCC1)OO5` (some centres not stated), the GI50 in the test on A498 was > 100 µM (inactive); in the test with SF-295 it was 9.4 µM (inactive); with SF-268, 19.7 µM (inactive); with OVCAR-4 it was 4.06 µM (inactive); with EKVX, 1.9 µM (inactive); in the test with DU-145, 7.87 µM (inactive). For the same compound, the GI50 is > 100 µM (inactive) with SNB-19; 3.33 µM (inactive) in the test on M14; > 100 µM (inactive) with TK-10; 2.75 µM (inactive) in the test on T47D; 13.7 µM (inactive) in the test on OVCAR-8; > 100 µM (inactive) with UACC-62. Moreover, the GI50 with HCT-15 was 11.9 µM; with COLO 205, 6.17 µM (inactive); with PC-3, 6.55 µM (inactive); with SK-MEL-5, 5.78 µM (inactive); in the test with NCI-H460, 4.69 µM (inactive); with HT-29 it was 14.2 µM (inactive).

Consider `O=C(/C=C1/Nc2ccc([N+](=O)[O-])cc2N/C1=C/C(=O)c1ccccc1)c1ccccc1`, for which the GI50 is 21.4 µM (inactive) in the test on A498; 15 µM (inactive) in the test on SF-295; 15.2 µM (inactive) in the test on SF-268; 5.6 µM (inactive) with OVCAR-4; 30.8 µM (inactive) with EKVX; 43.7 µM (inactive) in the test with DU-145. The GI50 in the test on SNB-19 is 21.6 µM (inactive); with M14 it was 86.9 µM (inactive); in the test on TK-10, 24.9 µM (inactive); with T47D, 18.3 µM (inactive); in the test with OVCAR-8 it was 16.8 µM (inactive); in the test on UACC-62 it was 12.6 µM (inactive). The GI50 with HCT-15 was 11.5 µM; in the test with COLO 205, 53.6 µM (inactive); in the test with PC-3, 43.7 µM (inactive); in the test on SK-MEL-5, 38 µM (inactive); in the test with NCI-H460, 13.7 µM (inactive); with HT-29 it was 71.1 µM (inactive).
